Results reported in ChEMBL document CHEMBL3734717, “New INH-pyrazole analogs: Design, synthesis and evaluation of antitubercular and antibacterial activity” (Bioorg Med Chem Lett, 2015).
Converted amounts (≈) assume the structure as drawn. The source made the active and inactive calls. The rule behind the calls is not given here.

Legend:
Escherichia coli [1] = assay: Antibacterial activity against Escherichia coli assessed as zone of inhibition at 75 ug/ml incubated for 18-24 hrs at 37 degC by disc diffusion method; type: functional; conditions: for zone of inhibition at 75 µg/mL: read-out: IZ
[2] = tested on: Mycobacterium tuberculosis; assay: Antitubercular activity against Mycobacterium tuberculosis H37Rv assessed as inhibition of cell growth after 5 days by microplate alamar blue assay; type: functional; conditions: 120 h
Pseudomonas aeruginosa [3] = assay: Antibacterial activity against Pseudomonas aeruginosa assessed as zone of inhibition at 50 ug/ml incubated for 18-24 hrs at 37 degC by disc diffusion method; type: functional; conditions: for zone of inhibition at 50 µg/mL: read-out: IZ
Staphylococcus aureus [4] = assay: Antibacterial activity against Staphylococcus aureus assessed as zone of inhibition at 75 ug/ml incubated for 18-24 hrs at 37 degC by disc diffusion method; type: functional; conditions: read-out: IZ
Staphylococcus aureus [5] = assay: Antibacterial activity against Staphylococcus aureus assessed as zone of inhibition at 50 ug/ml incubated for 18-24 hrs at 37 degC by disc diffusion method; type: functional; conditions: read-out: IZ
Escherichia coli [6] = assay: Antibacterial activity against Escherichia coli assessed as zone of inhibition at 50 ug/ml incubated for 18-24 hrs at 37 degC by disc diffusion method; type: functional; conditions: for zone of inhibition at 50 µg/mL: read-out: IZ
Pseudomonas aeruginosa [7] = assay: Antibacterial activity against Pseudomonas aeruginosa assessed as zone of inhibition at 75 ug/ml incubated for 18-24 hrs at 37 degC by disc diffusion method; type: functional; conditions: for zone of inhibition at 75 µg/mL: read-out: IZ
[8] = Cytotoxicity against African green monkey Vero cells assessed as growth inhibition at 62.5 ug/ml after 3 days by MTT assay; type: cell-based; conditions: chlorocebus sabaeus, read-out: GI
Vero = assay: Cytotoxicity against African green monkey Vero cells assessed as growth inhibition after 3 days by MTT assay; type: cell-based; conditions: Chlorocebus sabaeus, 72 h
[9] = Selectivity index, ratio of IC50 for African green monkey Vero cells to MIC for Mycobacterium tuberculosis H37Rv; type: toxicity, cell-based; conditions: read-out: Selectivity Index

| Structure (SMILES) | zone of inhibition at 75 µg/mL (Escherichia coli [1]) [mm] | MIC [2] [µM] | zone of inhibition at 50 µg/mL (Pseudomonas aeruginosa [3]) [mm] | zone of inhibition at 75 µg/mL (Staphylococcus aureus [4]) [mm] | zone of inhibition at 50 µg/mL (Staphylococcus aureus [5]) [mm] | zone of inhibition at 50 µg/mL (Escherichia coli [6]) [mm] | zone of inhibition at 75 µg/mL (Pseudomonas aeruginosa [7]) [mm] | inhibition at 72 h, 62.5 ug/ml [8] [%] | IC50 (Vero) [µg/mL] | selectivity ratio [9] | inhibition zone (IZ) (Escherichia coli [1]) | inhibition zone (IZ) (Pseudomonas aeruginosa [3]) | inhibition zone (IZ) (Escherichia coli [6]) | inhibition zone (IZ) (Pseudomonas aeruginosa [7]) |
| --- | --- | --- | --- | --- | --- | --- | --- | --- | --- | --- | --- | --- | --- | --- |
| O=C(c1ccncc1)N(/N=C/c1c[nH]nc1-c1ccc(Cl)cc1)C(=O)c1ccc([N+](=O)[O-])cc1 | 20 | 26.3 (≈ 12.5 µg/mL) | 15 | 19 | 17 | 18 | 17 | – | – | – | – | – | – | – |
| O=C(c1ccncc1)N(/N=C/c1c[nH]nc1-c1ccc(Cl)cc1)C(=O)c1ccc(F)cc1 | 19 | 112 (≈ 50 µg/mL) | 14 | 17 | 14 | 17 | 17 | – | – | – | – | – | – | – |
| O=C(c1ccncc1)N(/N=C/c1c[nH]nc1-c1cccc(Cl)c1)C(=O)c1ccc(CCl)cc1 | 16 | 52.3 (≈ 25 µg/mL) | 18 | 17 | 14 | 14 | 20 | – | – | – | – | – | – | – |
| COc1ccc(C(=O)N(/N=C/c2c[nH]nc2-c2cccc(Cl)c2)C(=O)c2ccncc2)cc1 | 11 | 109 (≈ 50 µg/mL) | 11 | 10 | 7 | 9 | 14 | – | – | – | – | – | – | – |
| O=C(c1ccncc1)N(/N=C/c1c[nH]nc1-c1ccc(Cl)cc1)C(=O)c1ccc(CCl)cc1 | 19 | 13.1 (≈ 6.27 µg/mL) | 18 | 16 | 13 | 15 | 20 | 12 | > 1000 | > 160 | – | – | – | – |
| O=C(O)c1cn(C2CC2)c2cc(N3CCNCC3)c(F)cc2c1=O [CIPROFLOXACIN] | 32 | – | 18 | 26 | 21 | 27 | 21 | – | – | – | – | – | – | – |
| NNC(=O)c1ccncc1 [ISONIAZID] | – | 0.7 (≈ 0.096 µg/mL) | – | – | – | – | – | – | – | – | – | – | – | – |
| Cc1ccc(C(=O)N(/N=C/c2c[nH]nc2-c2cccc(Cl)c2)C(=O)c2ccncc2)cc1 | 11 | 113 (≈ 50 µg/mL) | 8 | 12 | 10 | 8 | 10 | – | – | – | – | – | – | – |
| O=C(c1ccncc1)N(/N=C/c1c[nH]nc1-c1cccc(Cl)c1)C(=O)c1ccc(F)cc1 | 14 | 3.6 (≈ 1.61 µg/mL) | 13 | 16 | 13 | 12 | 17 | 17.8 | > 1000 | > 625 | – | – | – | – |
| COc1ccc(C(=O)N(/N=C/c2c[nH]nc2-c2ccc(Cl)cc2)C(=O)c2ccncc2)cc1 | 9 | 109 (≈ 50 µg/mL) | 10 | 12 | 10 | 7 | 13 | – | – | – | – | – | – | – |
| O=C(c1ccccc1)N(/N=C/c1c[nH]nc1-c1cccc(Cl)c1)C(=O)c1ccncc1 | – | 116 (≈ 50 µg/mL) | – | 13 | 11 | – | – | – | – | – | inactive | inactive | inactive | inactive |
| O=C(c1ccncc1)N(/N=C/c1c[nH]nc1-c1cccc(Cl)c1)C(=O)c1ccc(Cl)cc1 | 25 | 3.4 (≈ 1.58 µg/mL) | 19 | 23 | 18 | 21 | 21 | 10.5 | > 1000 | > 625 | – | – | – | – |
| O=C(N/N=C/c1c[nH]nc1-c1cccc(Cl)c1)c1ccncc1 | 24 | 4.9 (≈ 1.6 µg/mL) | 15 | 23 | 18 | 20 | 19 | 26.3 | > 1000 | > 625 | – | – | – | – |
| O=C(N/N=C/c1c[nH]nc1-c1ccc(Cl)cc1)c1ccncc1 | 16 | 38.4 (≈ 12.5 µg/mL) | 14 | 19 | 16 | 14 | 18 | – | – | – | – | – | – | – |
| O=C(c1ccccc1)N(/N=C/c1c[nH]nc1-c1ccc(Cl)cc1)C(=O)c1ccncc1 | – | 116 (≈ 50 µg/mL) | 10 | 11 | 9 | – | 12 | – | – | – | inactive | – | inactive | – |
| COc1ccc(C(=O)N(/N=C/c2c[nH]nc2-c2cccc(Cl)c2)C(=O)c2ccncc2)cc1OC | – | 102 (≈ 50 µg/mL) | – | 10 | 8 | – | – | – | – | – | inactive | inactive | inactive | inactive |
| O=C(c1ccncc1)N(/N=C/c1c[nH]nc1-c1cccc(Cl)c1)C(=O)c1ccccc1Cl | 18 | 1.7 (≈ 0.789 µg/mL) | 12 | 15 | 13 | 14 | 16 | 14.9 | 513 (≈ 1110 µM) | 642 | – | – | – | – |
| Cc1ccc(C(=O)N(/N=C/c2c[nH]nc2-c2ccc(Cl)cc2)C(=O)c2ccncc2)cc1 | 14 | 113 (≈ 50 µg/mL) | 11 | 20 | 17 | 12 | 15 | – | – | – | – | – | – | – |
| COc1ccc(C(=O)N(/N=C/c2c[nH]nc2-c2ccc(Cl)cc2)C(=O)c2ccncc2)cc1OC | 9 | 102 (≈ 50 µg/mL) | 9 | 10 | 8 | 6 | 11 | – | – | – | – | – | – | – |
| NC(=O)c1cnccn1 [PYRAZINAMIDE] | – | 406 (≈ 50 µg/mL) | – | – | – | – | – | – | – | – | – | – | – | – |
| O=C(c1ccncc1)N(/N=C/c1c[nH]nc1-c1ccc(Cl)cc1)C(=O)c1ccccc1Cl | 19 | 53.8 (≈ 25 µg/mL) | 15 | 18 | 14 | 16 | 19 | – | – | – | – | – | – | – |
| O=C(c1ccncc1)N(/N=C/c1c[nH]nc1-c1ccc(Cl)cc1)C(=O)c1ccc(Cl)cc1 | 24 | 53.8 (≈ 25 µg/mL) | 18 | 24 | 21 | 19 | 21 | – | – | – | – | – | – | – |
| O=C(c1ccncc1)N(/N=C/c1c[nH]nc1-c1cccc(Cl)c1)C(=O)c1ccc([N+](=O)[O-])cc1 | 15 | 26.3 (≈ 12.5 µg/mL) | 11 | 17 | 14 | 13 | 14 | – | – | – | – | – | – | – |
| CC[C@@H](CO)NCCN[C@@H](CC)CO [ETHAMBUTOL] | – | 15.3 (≈ 3.13 µg/mL) | – | – | – | – | – | – | – | – | – | – | – | – |
